Like-named read-outs stand apart in the source and are kept apart here.
Key:
[1] = system: A549; assay: IC50 of compounds and E7010 against A549 cell line; type: cell-based
From the text: (§1) In the present investigation, an attempt has been made, in view of the biological importance of both 2-anilino nicotinyl structure and 1,2,3-triazoles group. […] Introduction of triazole group on 2-anilino nicotinyl moiety resulted that there is enhancement of biological activity of representative compounds (1a, 1b, 1c, 1d, 1f, 1g, 1i, 1k, 6b and 6g) compare with E7010. Biological data of representative compounds has been provided in Table 1. • (Novel sulfonamides as potential, systemically active antitumor agents. Yoshino, H.; Ueda, N.; Niijima, J.; Sugumi, H.; Kotake, Y.; Koyanagi, N.; Yoshimatsu, K.; Asada, M.; Watanabe, T.; Nagasu, T. J. Med. Chem. 1992, 35, 2496-2497)

[2] = system: MCF-7; assay: IC50 of compounds and E7010 against MCF-7 cell line; type: cell-based
From the text: as §1

[3] = system: A549; settings: A549 cell line; E7010 comparison value (Chem MedChem 2012, 7, 680-693); cited from earlier work
[4] = system: MCF-7; settings: MCF-7 cell line; E7010 comparison value (Chem MedChem 2012, 7, 680-693); cited from earlier work
[5] = Homo sapiens, A549, A549 cell line
[6] = Homo sapiens, MCF7, MCF-7 cell line

SMILES | melting point | IC50 ([1]; A549 cell line) | IC50 [1, 5] | IC50 [2, 6] | IC50 ([2]; MCF-7 cell line) | IC50 [3] | IC50 [4]
O=C(NCc1cn(Cc2cccc(Oc3ccccc3)c2)nn1)c1cccnc1Nc1ccc(Cl)cc1 [Compound 1c, 2-(4-Chlorophenylamino)-N-((1-(3-phenoxybenzyl)-1H-1,2,3-triazol-4-yl)methyl)nicotinamide] | 127 to 129 °C |  |  |  |  |  | 
O=C(NCc1cn(Cc2cccc(Oc3ccccc3)c2)nn1)c1cccnc1Nc1ccc(Br)cc1 [Compound 1d, 2-(4-Bromophenylamino)-N-((1-(3-phenoxybenzyl)-1H-1,2,3-triazol-4-yl)methyl)nicotinamide] | 160 to 162 °C | 1900 nM | 1250 to 3980 nM | 740 to 2510 nM | 970 nM |  | 
O=C(NCc1cn(Cc2cccc(Oc3ccccc3)c2)nn1)c1cccnc1Nc1cccc(F)c1 [Compound 1f, 2-(3-Fluorophenylamino)-N-((1-(3-phenoxybenzyl)-1H-1,2,3-triazol-4-yl)methyl) nicotinamide] | 130 to 132 °C | 1900 nM | 1250 to 3980 nM |  |  |  | 
COc1ccc(S(=O)(=O)Nc2cccnc2Nc2ccc(O)cc2)cc1 [Compound E7010] |  |  |  |  |  | 4.45 µM | 9.06 µM

More lines, main results first:

melting point | IC50 ([1]; A549 cell line) | IC50 [1, 5] | IC50 [2, 6] | IC50 ([2]; MCF-7 cell line) | SMILES | IC50 [3] | IC50 [4]
140 to 142 °C | 1250 nM | 1250 to 3980 nM | 740 to 2510 nM | 1000 nM | COc1cc(Cn2cc(CNC(=O)c3cccnc3Nc3ccc(F)cc3)nn2)cc(OC)c1 [Compound 6b, N-((1-(3,5-Dimethoxybenzyl)-1H-1,2,3-triazol-4-yl)methyl)-2-((4-fluorophenyl)amino) nicotinamide] |  | 
147 to 149 °C | 1310 nM | 1250 to 3980 nM | 740 to 2510 nM | 1170 nM | COc1cc(Cn2cc(CNC(=O)c3cccnc3Nc3ccc(OC)cc3OC)nn2)cc(OC)c1 [Compound 6g, N-((1-(3,5-Dimethoxybenzyl)-1H-1,2,3-triazol-4-yl)methyl)-2-((2,4-dimethoxyphenyl)amino)nicotinamide] |  | 

Source: patent publication US9309225B2, “N-((1-benzyl-1H-1,2,3-triazol-4-yl)methyl)arylamide compounds as potential anticancer agents and a process for the preparation thereof” (COUNCIL OF SCIENTIFIC & INDUSTRIAL RESEARCH, priority 2013, dated 2016)
